Measured values as given in US9247737B2, “Method for disinfecting a surface” (Rohm and Haas Company, priority 2011, dated 2016).
“And” between values parts separate entries of the source, which are not always exact repeats. Equal entries are not always repeated.

Columns and labels:
Assay type in all cases: cell-based
[1] = system: Escherichia coli (E. coli ATCC #10536); assay: Example 2: high resolution MBC synergy assay in phosphate buffer containing 35% dipropylene glycol, 15 seconds; details: for ΣFBC: calculated for the Ca/Cb pair, 1.00 for a component alone; for MBC of component alone (MBCA thymol, MBCB acyclic terpene alcohol): complete kill in 15 seconds, phosphate buffer with 35% DPG, about 1×10^8 bacteria per mL
Method: In this Example, a wide range of combinations of chemicals was tested by conducting high resolution MBC assays of selected acyclic terpene alcohols in the presence of various concentrations of thymol. The materials were sourced in the same way as for Example 1. Synergy tests were conducted using standard microtiter plate assays with phosphate buffer containing 35% dipropylene glycol (DPG). […] The MBC plate was inoculated one column at a time with the test microorganism. An aliquot of the inoculated well was transferred at 15 seconds to a plate containing a neutralizing agent (DIE Neutralizing Broth), mixed and held for 5 minutes before being transferred to a growth plate containing trypticase soy broth (TSB). The TSB plate was incubated at 37° C. and read for the presence/absence of growth at 24 hours. […] This microorganism is representative of natural contaminants in many consumer and industrial applications. […] The tables show the specific combinations of two components: results against the microorganism tested: the end-point activity in weight % measured by the MBC for the first component alone (thymol, MBCA), for the second component alone (acyclic terpene alcohol, MBCB), for the first component in the mixture (Ca) and for the second component in the mixture (Cb); the calculated ΣFBC value; and the range of synergistic ratios for each combination tested (first component t second component or A/B) against the particular microorganism.

[2] = system: Escherichia coli (E. coli—ATCC #10536); assay: Example 3: automated assessment of efficacy in surfactant base (2.85% sodium cocoyl glycinate + 1.85% sodium lauroamphoacetate, pH 10), 15 seconds exposure, DeltaOD read-out; details: for MBC: in 2.85% sodium cocoyl glycinate + 1.85% sodium lauroamphoacetate solution at pH 10, 15 seconds; for 15 second bactericidal efficacy in combination with thymol (in words): in combination with thymol at concentrations lower than their MBC in the same surfactant formulation
Method: In these examples, the efficacy of combinations of thymol and acyclic terpene alcohols were tested in a surfactant cleansing formulation comprising 2.85% sodium cocoyl glycinate and 1.85% sodium lauroamphoacetate. […] Solutions were prepared such that the concentrations of the surfactant components and test actives were 1.1 times the final desired concentration in order to allow for dilution with the bacterial inoculum in the test. […] Solutions of the thymol and/or acyclic terpene alcohols were prepared at a maximum of 24 hours before testing. […] Tests were conducted using standard microtiter plate assays using an automated liquid handling system. 270 μl of the surfactant test solution was pipetted into each well of the microtitre plate (Nunc F Gamma irradiated 96F untreated microtitre plates of clear polystyrene) and 30 μl of the bacterial suspension was then added. After exactly 15 seconds of bacterial exposure, a 30 μl volume of bacterial cells was withdrawn and transferred to 270 μl of D/E quench solution. […] These provide a dual check of antimicrobial activity, as the OD450 reading is specific for the yellow colour of DIE quench when bacterial growth is observed, whereas OD590 is specific for the initial purple colour of the D/E quench which is retained if no bacterial growth is observed. […] Bacterial growth is observed as an increase in OD450 and a decrease in OD590. […] Four replicate measurements in the same plate have been made for each test system. The number of replicate wells showing either bacterial growth or no growth is also readily assessed by eye by following the colour change. Thymol and terpineol were tested both alone and in combination for comparison purposes.

[3] = system: Escherichia coli (10536 strain); assay: Example 1: 15 second contact-time bacterial kill assay (microtitre plate, D/E quench, TSA plate count); MBC and FBC analysis; details: lowest concentration of the single active giving zero bacterial survival after 15 seconds; upper boundary
Method: The efficacies of antimicrobial agents can be usefully compared by determining the Minimum Biocidal Concentration (MBC). The MBC is defined as the lowest absolute concentration of the particular active that provides complete kill (zero bacterial growth).
1 ml of this overnight E. coli culture was transferred to 50 ml of fresh TSB broth and incubated at 37° C. at 150 rpm for ca. 4 hours. This culture was separated into equal volumes and centrifuged at 4000 rpm for 15 minutes, washed with sterile saline (0.85% NaCl), centrifuged once more and re-suspended in saline to give a final concentration of 0.8 OD620 equivalent to about 10^8 cells per millilitre for this particular organism. Here, OD620 indicates the absorbance of a sample in a cuvette of 1.0 cm path length at a wavelength of 620 nm. This bacterial stock was used for assaying against antimicrobial actives (in triplicate).
The following assay describes the testing of 8 materials using 6 dilutions across half of a 96-well micro titre plate (MTP). Using this approach it is possible to assay 16 actives (without replicates) with one full dilution plate, replicating this set up in two halves of the plate columns, 1-6 and 7-12.
This MTP was labelled as the “Screening plate”.
In another MTP, labelled as the “Dilution plate”, 270 μl of D/E neutralising solution from DIFCO Composition was added to column 1. The composition of the neutralising solution was as follows: pancreatic digest of casein, 5.0 g/L; Yeast Extract, 2.5 g/L; Dextrose, 10 g/L, sodium thioglycollate, 1.0 g/L, sodium thiosulphate, 6.0 g/L; sodium bisulphite, 2.5 g/L; Polysorbate 80, 5.0 g/L; lecithin 7.0 g/L; bromocresol purple, 0.02 g/L with a pH in the range 7.6±0.2.
270 μl of tryptone diluent solution was added to all the remaining wells of the Dilution MTP (columns 2-6).
After exactly 5 minutes in the D/E neutralising solution, 30 μl volumes were transferred from column 1 to column 2 of the Dilution MTP and mixed, before transferring further 30 μl volumes from column 2 into column 3. […]

Cc1ccc(C(C)C)c(O)c1 [thymol, 2-isopropyl-5-methylphenol]
ΣFBC [1]: 1.00 | MBC of component alone (MBCA thymol, MBCB acyclic terpene alcohol) [1]: 0.5 weight % and 0.4 weight % | MBC [2]: 0.2 % w/v

CC(C)=CCC/C(C)=C\CO [nerol, (Z)-3,7-dimethylocta-2,6-dien-1-ol]
ΣFBC [1]: 1.00 | MBC of component alone (MBCA thymol, MBCB acyclic terpene alcohol) [1]: 0.5 weight %

C=CC(C)(O)CCC=C(C)C (racemic) [(+/−)-linalool, 3,7-dimethylocta-1,6-dien-3-ol]
MBC (minimum biocidal concentration) [3]: 0.4 % w/v | ΣFBC [1]: 1.00 | MBC of component alone (MBCA thymol, MBCB acyclic terpene alcohol) [1]: 0.5 weight % | MBC [2]: >0.5 % w/v | 15 second bactericidal efficacy in combination with thymol (in words) [2]: complete kill

C=C[C@@](C)(O)CCC=C(C)C [(−)-linalool, (S)-3,7-dimethylocta-1,6-dien-3-ol]
MBC (minimum biocidal concentration) [3]: 0.4 % w/v

CC1=CCC(C(C)(C)O)CC1 (stereo not drawn) [alpha-terpineol, reference compound]
MBC (minimum biocidal concentration) [3]: 0.4 % w/v

CC(C)=CCC/C(C)=C/CO [geraniol, (E)-3,7-dimethylocta-2,6-dien-1-ol]
ΣFBC [1]: 1.00 | MBC of component alone (MBCA thymol, MBCB acyclic terpene alcohol) [1]: 0.3 weight % | MBC [2]: >0.5 % w/v and 0.5 % w/v | 15 second bactericidal efficacy in combination with thymol (in words) [2]: complete kill
